Data reported in patent publication US6838414B2, “Substituted aryl sulphonyl(thio)ureas used as herbicides” (Bayer Aktiengesellschaft, priority 1996, dated 2005).

Legend:
Type in all cases: in vivo
Amaranthus = experiment: Pre-emergence test/greenhouse; settings: after three weeks
Method: (§1) To produce a suitable preparation of active compound, 1 part by weight of active compound is mixed with the stated amount of solvent, the stated amount of emulsifier is added and the concentrate is diluted with water to the desired concentration.
(§2) Seeds of the test plants are sown in normal soil. After about 24 hours, the soil is sprayed with the preparation of the active compound. Advantageously, the amount of water per unit area is kept constant. The active compound concentration in the preparation is not important, only the active compound application rate per unit area is critical.
(§3) After three weeks, the degree of damage to the plants is rated in % damage in comparison with the development of the untreated control.
(§4) The figures denote: • 0%=no effect (like untreated control) • 100%=total destruction

Chenopodium = experiment: Pre-emergence test/greenhouse; settings: after three weeks
Method: as §1, §2, §3, §4

Alopecurus [1] = experiment: Pre-emergence test/greenhouse; settings: after three weeks
Method: as §1, §2, §3, §4

Sorghum = experiment: Pre-emergence test/greenhouse; settings: after three weeks
Method: as §1, §2, §3, §4

Lolium = experiment: Pre-emergence test/greenhouse; settings: after three weeks
Method: as §1, §2, §3, §4

Stellaria = experiment: Pre-emergence test/greenhouse; settings: after three weeks
Method: as §1, §2, §3, §4

weeds [2] = experiment: Post-emergence test/greenhouse
Method: as §1
(§5) Test plants which have a height of 5-15 cm are sprayed with the preparation of the active compound in such a way as to apply the particular amounts of active compound desired per unit area. The concentration of the spray liquor is chosen so that the amounts of active compound desired in each case are applied in 1000 l of water/ha.
as §3, §4

Matricaria = experiment: Post-emergence test/greenhouse; settings: rated after three weeks vs untreated control
Method: as §1, §5, §3, §4

Echinochloa = experiment: Post-emergence test/greenhouse; settings: rated after three weeks vs untreated control
Method: as §1, §5, §3, §4

Alopecurus [3] = experiment: Post-emergence test/greenhouse; settings: rated after three weeks vs untreated control
Method: as §1, §5, §3, §4

Abutilon = experiment: Post-emergence test/greenhouse; settings: rated after three weeks vs untreated control
Method: as §1, §5, §3, §4

weeds [4] = experiment: Pre-emergence test (overall statement); settings: application rates between 30 g and 125 g of a.i. per hectare
Method: as §1, §2, §3, §4

[5] = application rate 30 g of ai./ha
[6] = application rate 60 g of ai./ha
[7] = application rate 125 g of ai./ha

COc1nc(C)nc(NC(=O)NS(=O)(=O)c2c(OC(C)C)cccc2C(F)(F)F)n1 [Example 12]
Amaranthus, % damage (Amaranthus; 30 g of ai./ha): 100% | Chenopodium, % damage (Chenopodium; 30 g of ai./ha): 95% | Alopecurus, % damage (Alopecurus [1]; 30 g of ai./ha): 100% | Sorghum, % damage (Sorghum; 30 g of ai./ha): 100% | Lolium, % damage (Lolium; 30 g of ai./ha): 100% | Steltaria, % damage (Stellaria; 30 g of ai./ha): 100% | activity against weeds (weeds [2]): very strong activity against weeds | degree of damage to the plants, Matricaria (Matricaria; [5]): 100% | degree of damage to the plants, Echinochloa (Echinochloa; [5]): 90% | degree of damage to the plants, Alopecurus (Alopecurus [3]; [5]): 95% | degree of damage to the plants, Abutilon (Abutilon; [5]): 95% | activity against weeds (weeds [4]): very strong activity against weeds

COc1nc(NC(=O)NS(=O)(=O)c2c(C)cccc2OC(C)C)nc(OC)n1 [Example 38]
Amaranthus, % damage (Amaranthus; 30 g of ai./ha): 80% | Chenopodium, % damage (Chenopodium; 30 g of ai./ha): 100% | Alopecurus, % damage (Alopecurus [1]; 30 g of ai./ha): 100% | Sorghum, % damage (Sorghum; 30 g of ai./ha): 100% | Lolium, % damage (Lolium; 30 g of ai./ha): 100% | Steltaria, % damage (Stellaria; 30 g of ai./ha): 100% | activity against weeds (weeds [2]): very strong activity against weeds | degree of damage to the plants, Matricaria (Matricaria; [5]): 95% | degree of damage to the plants, Echinochloa (Echinochloa; [5]): 70% | degree of damage to the plants, Alopecurus (Alopecurus [3]; [5]): 60% | degree of damage to the plants, Abutilon (Abutilon; [5]): 95% | activity against weeds (weeds [4]): very strong activity against weeds

CCOc1cccc(C(F)(F)F)c1S(=O)(=O)NC(=O)Nc1nc(C)nc(OC)n1 [Example 4]
Amaranthus, % damage (Amaranthus; 60 g of ai./ha): 100% | Chenopodium, % damage (Chenopodium; 60 g of ai./ha): 100% | Alopecurus, % damage (Alopecurus [1]; 60 g of ai./ha): 100% | Sorghum, % damage (Sorghum; 60 g of ai./ha): 100% | Lolium, % damage (Lolium; 60 g of ai./ha): 100% | Steltaria, % damage (Stellaria; 60 g of ai./ha): 95% | activity against weeds (weeds [2]): very strong activity against weeds | degree of damage to the plants, Matricaria (Matricaria; [5]): 100% | degree of damage to the plants, Echinochloa (Echinochloa; [5]): 90% | degree of damage to the plants, Alopecurus (Alopecurus [3]; [5]): 90% | degree of damage to the plants, Abutilon (Abutilon; [5]): 100% | activity against weeds (weeds [4]): very strong activity against weeds

COc1cc(Cl)nc(NC(=O)NS(=O)(=O)c2c(OC)cccc2C(F)(F)F)n1 [Example 15]
Amaranthus, % damage (Amaranthus; 60 g of ai./ha): 95% | Chenopodium, % damage (Chenopodium; 60 g of ai./ha): 100% | Alopecurus, % damage (Alopecurus [1]; 60 g of ai./ha): 100% | Sorghum, % damage (Sorghum; 60 g of ai./ha): 95% | Lolium, % damage (Lolium; 60 g of ai./ha): 95% | Steltaria, % damage (Stellaria; 60 g of ai./ha): 95% | activity against weeds (weeds [2]): very strong activity against weeds | degree of damage to the plants, Matricaria (Matricaria; [6]): 100% | degree of damage to the plants, Echinochloa (Echinochloa; [6]): 90% | degree of damage to the plants, Alopecurus (Alopecurus [3]; [6]): 70% | degree of damage to the plants, Abutilon (Abutilon; [6]): 95% | activity against weeds (weeds [4]): very strong activity against weeds

CCOc1cccc(C(F)(F)F)c1S(=O)(=O)NC(=O)Nc1nc(OC)nc(OC)n1 [Example 7]
Amaranthus, % damage (Amaranthus; 60 g of ai./ha): 95% | Chenopodium, % damage (Chenopodium; 60 g of ai./ha): 100% | Alopecurus, % damage (Alopecurus [1]; 60 g of ai./ha): 100% | Sorghum, % damage (Sorghum; 60 g of ai./ha): 100% | Lolium, % damage (Lolium; 60 g of ai./ha): 95% | Steltaria, % damage (Stellaria; 60 g of ai./ha): 95% | activity against weeds (weeds [2]): very strong activity against weeds | degree of damage to the plants, Matricaria (Matricaria; [5]): 100% | degree of damage to the plants, Echinochloa (Echinochloa; [5]): 95% | degree of damage to the plants, Alopecurus (Alopecurus [3]; [5]): 95% | degree of damage to the plants, Abutilon (Abutilon; [5]): 95% | activity against weeds (weeds [4]): very strong activity against weeds

COc1nc(C)nc(NC(=O)NS(=O)(=O)c2c(C)cccc2OC)n1 [Example 40]
Amaranthus, % damage (Amaranthus; 30 g of ai./ha): 100% | Chenopodium, % damage (Chenopodium; 30 g of ai./ha): 100% | Alopecurus, % damage (Alopecurus [1]; 30 g of ai./ha): 100% | Sorghum, % damage (Sorghum; 30 g of ai./ha): 100% | Lolium, % damage (Lolium; 30 g of ai./ha): 100% | Steltaria, % damage (Stellaria; 30 g of ai./ha): 100% | activity against weeds (weeds [2]): very strong activity against weeds | degree of damage to the plants, Matricaria (Matricaria; [5]): 100% | degree of damage to the plants, Echinochloa (Echinochloa; [5]): 95% | degree of damage to the plants, Alopecurus (Alopecurus [3]; [5]): 100% | degree of damage to the plants, Abutilon (Abutilon; [5]): 95% | activity against weeds (weeds [4]): very strong activity against weeds

COc1cc(C)nc(NC(=O)NS(=O)(=O)c2c(C)cccc2OC)n1 [Example 43]
Amaranthus, % damage (Amaranthus; 30 g of ai./ha): 100% | Chenopodium, % damage (Chenopodium; 30 g of ai./ha): 100% | Alopecurus, % damage (Alopecurus [1]; 30 g of ai./ha): 100% | Sorghum, % damage (Sorghum; 30 g of ai./ha): 100% | Lolium, % damage (Lolium; 30 g of ai./ha): 100% | Steltaria, % damage (Stellaria; 30 g of ai./ha): 100% | activity against weeds (weeds [2]): very strong activity against weeds | degree of damage to the plants, Matricaria (Matricaria; [5]): 100% | degree of damage to the plants, Echinochloa (Echinochloa; [5]): 95% | degree of damage to the plants, Alopecurus (Alopecurus [3]; [5]): 60% | degree of damage to the plants, Abutilon (Abutilon; [5]): 100% | activity against weeds (weeds [4]): very strong activity against weeds

COc1nc(NC(=O)NS(=O)(=O)c2c(OC)cccc2C(F)(F)F)nc(OC)n1 [Example 6]
Amaranthus, % damage (Amaranthus; 60 g of ai./ha): 100% | Chenopodium, % damage (Chenopodium; 60 g of ai./ha): 100% | Alopecurus, % damage (Alopecurus [1]; 60 g of ai./ha): 100% | Sorghum, % damage (Sorghum; 60 g of ai./ha): 100% | Lolium, % damage (Lolium; 60 g of ai./ha): 100% | Steltaria, % damage (Stellaria; 60 g of ai./ha): 100% | activity against weeds (weeds [2]): very strong activity against weeds | degree of damage to the plants, Matricaria (Matricaria; [5]): 100% | degree of damage to the plants, Echinochloa (Echinochloa; [5]): 100% | degree of damage to the plants, Alopecurus (Alopecurus [3]; [5]): 60% | degree of damage to the plants, Abutilon (Abutilon; [5]): 90% | activity against weeds (weeds [4]): very strong activity against weeds

COc1cc(OC)nc(NC(=O)NS(=O)(=O)c2c(C)cccc2OC)n1 [Example 44]
Amaranthus, % damage (Amaranthus; 30 g of ai./ha): 100% | Chenopodium, % damage (Chenopodium; 30 g of ai./ha): 100% | Alopecurus, % damage (Alopecurus [1]; 30 g of ai./ha): 100% | Sorghum, % damage (Sorghum; 30 g of ai./ha): 100% | Lolium, % damage (Lolium; 30 g of ai./ha): 100% | Steltaria, % damage (Stellaria; 30 g of ai./ha): 100% | activity against weeds (weeds [2]): very strong activity against weeds | degree of damage to the plants, Matricaria (Matricaria; [5]): 100% | degree of damage to the plants, Echinochloa (Echinochloa; [5]): 90% | degree of damage to the plants, Alopecurus (Alopecurus [3]; [5]): 60% | degree of damage to the plants, Abutilon (Abutilon; [5]): 100% | activity against weeds (weeds [4]): very strong activity against weeds

COc1cc(OC)nc(NC(=O)NS(=O)(=O)c2c(C)cccc2OC(F)F)n1 [Example 65]
Amaranthus, % damage (Amaranthus; 125 g of ai./ha): 95% | Chenopodium, % damage (Chenopodium; 125 g of ai./ha): 95% | Alopecurus, % damage (Alopecurus [1]; 125 g of ai./ha): 95% | Lolium, % damage (Lolium; 125 g of ai./ha): 70% | Steltaria, % damage (Stellaria; 125 g of ai./ha): 95% | activity against weeds (weeds [2]): very strong activity against weeds | degree of damage to the plants, Matricaria (Matricaria; [7]): 100% | degree of damage to the plants, Echinochloa (Echinochloa; [7]): 90% | degree of damage to the plants, Alopecurus (Alopecurus [3]; [7]): 90% | degree of damage to the plants, Abutilon (Abutilon; [7]): 100% | activity against weeds (weeds [4]): very strong activity against weeds

COc1cc(OC)nc(NC(=O)NS(=O)(=O)c2c(OC)cccc2C(F)(F)F)n1 [Example 22]
Amaranthus, % damage (Amaranthus; 30 g of ai./ha): 100% | Chenopodium, % damage (Chenopodium; 30 g of ai./ha): 100% | Alopecurus, % damage (Alopecurus [1]; 30 g of ai./ha): 100% | Sorghum, % damage (Sorghum; 30 g of ai./ha): 95% | Steltaria, % damage (Stellaria; 30 g of ai./ha): 100% | activity against weeds (weeds [2]): very strong activity against weeds | degree of damage to the plants, Matricaria (Matricaria; [5]): 95% | degree of damage to the plants, Echinochloa (Echinochloa; [5]): 80% | degree of damage to the plants, Alopecurus (Alopecurus [3]; [5]): 60% | degree of damage to the plants, Abutilon (Abutilon; [5]): 95% | activity against weeds (weeds [4]): very strong activity against weeds
